From US8883782B2, “Spiro-tetracyclic ring compounds as beta-secretase modulators and methods of use” (Amgen Inc., priority 2010, dated 2014)
pIC50: −log10 of the molar value. Where two headings read alike, the source gives them in different places.

Columns and labels:
[1] = tested on: Aβ40 in conditioned medium of cells stably expressing Amyloid Precursor Protein (APP); test: In vitro BACE cell-based assay (Aβ40 in conditioned medium, sandwich ELISA); settings: read-out: HEK cell assay
Summary of the method: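 Secreted Aβ40 is captured with pAb40 and detected with biotinylated 6E10, read by europium time-resolved fluorescence. IC50 comes from percent inhibition versus concentration.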

[2] = target: Beta Secretase enzyme (BACE) (Homo sapiens, UniProt P56817); test: In vitro enzymatic BACE FRET (fluorescence resonance energy transfer) assay; assay type: biochemical; settings: average IC50, enzyme assay; read-out: BACE 1 FRET assay
Sequence of Beta Secretase enzyme (BACE) (P56817 46-501, species assumed): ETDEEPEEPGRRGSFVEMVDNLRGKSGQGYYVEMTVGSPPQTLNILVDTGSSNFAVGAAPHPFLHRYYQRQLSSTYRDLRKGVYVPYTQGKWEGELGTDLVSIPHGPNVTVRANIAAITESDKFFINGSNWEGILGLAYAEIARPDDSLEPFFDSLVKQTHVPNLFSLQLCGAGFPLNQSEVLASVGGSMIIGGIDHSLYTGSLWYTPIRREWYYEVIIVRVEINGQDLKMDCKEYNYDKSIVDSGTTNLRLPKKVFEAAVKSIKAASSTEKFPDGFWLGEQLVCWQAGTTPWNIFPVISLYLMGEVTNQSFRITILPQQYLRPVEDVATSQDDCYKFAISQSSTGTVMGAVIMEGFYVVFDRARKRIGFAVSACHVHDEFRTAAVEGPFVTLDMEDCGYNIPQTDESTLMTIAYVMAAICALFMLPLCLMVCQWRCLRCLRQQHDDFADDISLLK
Summary of the method: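 A peptide bearing a fluorophore and quencher across the cleavage site serves as substrate at 50 nM. Reactions proceed one hour in acidic acetate buffer (0.05 M, pH 4.2) containing 10% DMSO final and 100 uM genapol, then are terminated with Tris and read fluorimetrically.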

[3] = Homo sapiens, HEK293, average IC50
[4] = Homo sapiens, HEK293, average IC50, HEK cells

Compound	pIC50 [1, 3]	pIC50 [2]	pIC50 ([1]; average IC50)	pIC50 [1, 4]
NC1=N[C@]2(CO1)c1cc(-c3cccc(Cl)c3)ccc1Oc1cnc(C3=CCOCC3)cc12 [Example 234, (5R)-7-(3-chlorophenyl)-3-(3,6-dihydro-2H-pyran-4-yl)spiro[chromeno[2,3-c]pyridine-5,4′-[1,3]oxazol]-2′-amine]	5.37	6.31	–	–
(4S)-2′-(2-chloro-4-pyrimidinyl)-4′-fluoro-7′-(2-fluoro-3-pyridinyl)spiro[1,3-oxazole-4,9′-xanthen]-2-amine [Example 221]	–	9.15	6.89	–
NC1=NC2(CO1)c1cc(-c3cccnc3)ccc1Oc1c2cc(C2CCOCC2)nc1F (stereo not shown) [Example 752, 1-fluoro-7-(3-pyridinyl)-3-(tetrahydro-2H-pyran-4-yl)spiro[chromeno[2,3-c]pyridine-5,4′-[1,3]oxazol]-2′-amine]	7.11	8.25	–	–
CC1(C#Cc2cc3c(cc2OC(F)(F)F)Oc2ccc(-c4cccnc4F)cc2[C@@]32COC(N)=N2)COC1 [Example 986, (4S)-7′-(2-fluoro-3-pyridinyl)-2′-((3-methyl-3-oxetanyl)ethynyl)-3′-(trifluoromethoxy)spiro[1,3-oxazole-4,9′-xanthen]-2-amine]	5.55	6.71	–	–
CC1(C)C[C@H](c2cc3c(cn2)Oc2ccc(-c4cncnc4)cc2[C@@]32COC(N)=N2)CCO1 [Example 544, (5S)-3-((4R)-2,2-dimethyltetrahydro-2H-pyran-4-yl)-7-(5-pyrimidinyl)spiro[chromeno[2,3-c]pyridine-5,4′-[1,3]oxazol]-2′-amine]	–	8.08	–	6.92
NC1=N[C@@]2(CO1)c1cc(-c3cncc(C#CC4CC4)c3)ccc1Oc1cnc(-c3ccnc(F)c3)cc12 [Example 815, (5S)-7-(5-(cyclopropylethynyl)-3-pyridinyl)-3-(2-fluoro-4-pyridinyl)spiro[chromeno[2,3-c]pyridine-5,4′-[1,3]oxazol]-2′-amine]	6.16	8.72	–	–
CC(C)(C)C#Cc1ccc2c(c1)[C@]1(COC(N)=N1)c1cc(-c3cncnc3)c(F)cc1O2 [Example 497, (4R)-7′-(3,3-dimethyl-1-butyn-1-yl)-3′-fluoro-2′-(5-pyrimidinyl)spiro[1,3-oxazole-4,9′-xanthen]-2-amine]	–	8.60	–	7.43
CC1(C#Cc2cnc3c(c2)[C@]2(COC(N)=N2)c2cc(OCc4ccccc4)ccc2O3)COC1 [Example 973, (5S)-7-(benzyloxy)-3-((3-methyl-3-oxetanyl)ethynyl)spiro[chromeno[2,3-b]pyridine-5,4′-[1,3]oxazol]-2′-amine]	5.86	6.73	–	–
CC1(COc2cc(F)c3c(c2)[C@]2(CSC(N)=N2)c2cc(-c4cccnc4)c(F)cc2O3)COC1 [Example 878, (4S)-3′,5′-difluoro-7′-((3-methyl-3-oxetanyl)methoxy)-2′-(3-pyridinyl)spiro[1,3-thiazole-4,9′-xanthen]-2-amine]	–	9.40	–	8.10
N#Cc1cncc(-c2ccc3c(c2)[C@@]2(COC(N)=N2)c2cc(C4=CCOCC4)ccc2O3)c1 [Example 190, 5-((4R)-2-amino-7′-(3,6-dihydro-2H-pyran-4-yl)spiro[1,3-oxazole-4,9′-xanthen]-2′-yl)-3-pyridinecarbonitrile]	7.64	7.99	–	–
NC1=N[C@@]2(CO1)c1cc(-c3cccnc3F)ccc1Oc1c2cc(N2CC[C@@H](F)C2)nc1F [Example 673, (5S)-1-fluoro-7-(2-fluoro-3-pyridinyl)-3-((3R)-3-fluoro-1-pyrrolidinyl)spiro[chromeno[2,3-c]pyridine-5,4′-[1,3]oxazol]-2′-amine]	–	9.52	–	8.52
NC1=N[C@@]2(CO1)c1cc(OCc3cccnc3)ccc1Oc1ncc(C3=CCOCC3)cc12 [Example 971, (5S)-3-(3,6-dihydro-2H-pyran-4-yl)-7-(3-pyridinylmethoxy)spiro[chromeno[2,3-b]pyridine-5,4′-[1,3]oxazol]-2′-amine]	6.81	7.47	–	–
Cc1ncncc1-c1ccc2c(c1)[C@@]1(COC(N)=N1)c1cc(C3=CCOCC3)ncc1O2 [Example 808, (5S)-3-(3,6-dihydro-2H-pyran-4-yl)-7-(4-methyl-5-pyrimidinyl)spiro[chromeno[2,3-c]pyridine-5,4′-[1,3]oxazol]-2′-amine]	7.03	8.52	–	–
N#Cc1cccc(-c2ccc3c(c2)[C@@]2(COC(N)=N2)c2cc(N4CC[C@@H](F)C4)nc(F)c2O3)c1 [Example 919, 3-((5S)-2′-amino-1-fluoro-3-((3R)-3-fluoro-1-pyrrolidinyl)spiro[chromeno[2,3-c]pyridine-5,4′-[1,3]oxazol]-7-yl)benzonitrile]	–	9.40	–	8.22
NC1=N[C@]2(CO1)c1cc(-c3cccnc3)ccc1Oc1c2cc(-c2ccnc(F)c2)c(F)c1F [Example 1012, (4R)-3′,4′-difluoro-2′-(2-fluoro-4-pyridinyl)-7′-(3-pyridinyl)spiro[1,3-oxazole-4,9′-xanthen]-2-amine]	5.73	7.22	–	–
CC1(C#Cc2cc3c(cn2)Oc2ccc(-c4cncc(F)c4)cc2[C@@]32COC(N)=N2)COC1 [Example 153, (5S)-7-(5-fluoro-3-pyridinyl)-3-((3-methyl-3-oxetanyl)ethynyl)spiro[chromeno[2,3-c]pyridine-5,4′-[1,3]oxazol]-2′-amine]	7.34	8.04	–	–
CC(C)(C#N)COc1cc2c(c(F)c1F)Oc1ccc(-c3cccnc3)cc1[C@@]21COC(N)=N1 [Example 1009, 3-(((4S)-2-amino-3′,4′-difluoro-7′-(3-pyridinyl)spiro[1,3-oxazole-4,9′-xanthen]-2′-yl)oxy)-2,2-dimethylpropanenitrile]	7.49	8.77	–	–
Cc1ccc(-c2cc(F)c3c(c2)[C@]2(CSC(N)=N2)c2cc(-c4cccnc4F)ccc2O3)cn1 [Example 1086, (4S)-4′-fluoro-7′-(2-fluoro-3-pyridinyl)-2′-(6-methyl-3-pyridinyl)spiro[1,3-thiazole-4,9′-xanthen]-2-amine]	5.86	7.17	–	–
COc1ccc2c(c1)[C@@]1(COC(N)=N1)c1cc(-n3ccc(C)n3)cc(F)c1O2 [Example 664, (4S)-4′-fluoro-7′-methoxy-2′-(3-methyl-1H-pyrazol-1-yl)spiro[1,3-oxazole-4,9′-xanthen]-2-amine]	–	6.00	–	5.18
NC1=N[C@@]2(CO1)c1cc(-c3cccnc3F)ccc1Oc1c2cc(C#Cc2cccnc2)nc1F [Example 748, (5S)-1-fluoro-7-(2-fluoro-3-pyridinyl)-3-(3-pyridinylethynyl)spiro[chromeno[2,3-c]pyridine-5,4′-[1,3]oxazol]-2′-amine]	7.13	9.40	–	–
CC1(C)C[C@H](c2cc3c(cn2)Oc2ccc(-c4cccnc4)cc2[C@@]32COC(N)=N2)CCO1 [Example 368, (5S)-3-((4R)-2,2-dimethyltetrahydro-2H-pyran-4-yl)-7-(3-pyridinyl)spiro[chromeno[2,3-c]pyridine-5,4′-[1,3]oxazol]-2′-amine]	7.42	7.98	–	–
NC1=N[C@@]2(CO1)c1cc(-c3cncc(F)c3)ccc1Oc1c(F)cc(C3=CCCOC3)cc12 [Example 278, (4S)-2′-(5,6-dihydro-2H-pyran-3-yl)-4′-fluoro-7′-(5-fluoro-3-pyridinyl)spiro[1,3-oxazole-4,9′-xanthen]-2-amine]	8.41	9.40	–	–
CC(C)(C)COc1cc2c(cn1)Oc1ccc(-c3cccnc3F)cc1[C@]21COC(N)=N1 [Example 610, (5R)-3-(2,2-dimethylpropoxy)-7-(2-fluoro-3-pyridinyl)spiro[chromeno[2,3-c]pyridine-5,4′-[1,3]oxazol]-2′-amine]	–	6.93	–	5.95
COc1ncc(-c2ccc3c(c2)[C@@]2(COC(N)=N2)c2cc(N4CC[C@@H](F)C4)ncc2O3)cn1 [Example 417, (5S)-3-((3R)-3-fluoro-1-pyrrolidinyl)-7-(2-methoxy-5-pyrimidinyl)spiro[chromeno[2,3-c]pyridine-5,4′-[1,3]oxazol]-2′-amine]	–	7.07	–	6.47
CC1(C#Cc2cc3c(cn2)Oc2ccc(-c4ccc(F)nc4)cc2[C@@]32COC(N)=N2)COC1 [Example 156, (5S)-7-(6-fluoro-3-pyridinyl)-3-((3-methyl-3-oxetanyl)ethynyl)spiro[chromeno[2,3-c]pyridine-5,4′-[1,3]oxazol]-2′-amine]	7.34	7.96	–	–
NC1=N[C@@]2(CO1)c1cc(OCc3cccnc3)ccc1Oc1ncc(-c3cccnc3)cc12 [Example 975, (5S)-3-(3-pyridinyl)-7-(3-pyridinylmethoxy)spiro[chromeno[2,3-b]pyridine-5,4′-[1,3]oxazol]-2′-amine]	5.97	6.94	–	–
CC1(C#Cc2cc3c(nc2F)Oc2ccc(-c4ccc(F)nc4)cc2[C@]32COC(N)=N2)COC1 [Example 905, (5R)-2-fluoro-7-(6-fluoro-3-pyridinyl)-3-((3-methyl-3-oxetanyl)ethynyl)spiro[chromeno[2,3-b]pyridine-5,4′-[1,3]oxazol]-2′-amine]	–	6.90	–	5.51
Cn1cc(-c2cc3c(cc2F)Oc2ccc(-c4cccc(Cl)c4)cc2[C@@]32COC(N)=N2)cn1 [Example 313, (4S)-7′-(3-chlorophenyl)-3′-fluoro-2′-(1-methyl-1H-pyrazol-4-yl)spiro[1,3-oxazole-4,9′-xanthen]-2-amine]	7.10	8.74	–	–
CC1(C#Cc2cnc3c(c2)[C@]2(COC(N)=N2)c2cc(-c4ccc(F)c(F)c4)ccc2O3)COC1 [Example 188, (5S)-7-(3,4-difluorophenyl)-3-((3-methyl-3-oxetanyl)ethynyl)spiro[chromeno[2,3-b]pyridine-5,4′-[1,3]oxazol]-2′-amine]	7.06	8.35	–	–
